Source: PMC6743424, “Phenolic acid phenethylesters and their corresponding ketones: Inhibition of 5‐lipoxygenase and stability in human blood and HepaRG cells” (Pharmacology Research & Perspectives, 2019)

What follows are compounds tested against T1, 5‐LO (Homo sapiens, UniProt P09917) (assay: Biosynthesis of 5‐LO products in thapsigargin‐stimulated human PMNL). Details: 1 μmol/L, 5 min; 1 μmol/L thapsigargin 15 min.
T1 sequence (P09917 1-674): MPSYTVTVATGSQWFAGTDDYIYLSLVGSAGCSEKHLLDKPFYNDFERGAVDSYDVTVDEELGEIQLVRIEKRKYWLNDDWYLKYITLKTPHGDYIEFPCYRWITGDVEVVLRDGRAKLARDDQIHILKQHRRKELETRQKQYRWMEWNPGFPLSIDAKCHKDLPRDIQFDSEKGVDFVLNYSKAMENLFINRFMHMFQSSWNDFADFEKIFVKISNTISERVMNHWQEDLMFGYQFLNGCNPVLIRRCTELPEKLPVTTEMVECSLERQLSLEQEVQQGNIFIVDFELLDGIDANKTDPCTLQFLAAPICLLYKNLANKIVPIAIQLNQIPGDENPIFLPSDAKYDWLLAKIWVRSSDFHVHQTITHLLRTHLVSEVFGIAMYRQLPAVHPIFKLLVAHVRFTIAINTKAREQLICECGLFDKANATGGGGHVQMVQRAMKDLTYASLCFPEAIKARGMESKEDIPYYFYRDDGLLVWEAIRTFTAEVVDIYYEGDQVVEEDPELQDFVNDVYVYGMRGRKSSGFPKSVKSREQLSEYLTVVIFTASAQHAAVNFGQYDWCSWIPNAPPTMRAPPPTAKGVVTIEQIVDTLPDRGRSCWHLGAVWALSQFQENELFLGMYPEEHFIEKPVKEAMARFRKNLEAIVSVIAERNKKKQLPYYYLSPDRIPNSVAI
Format: cell-based
Design: endogenous in cells; host or cells: human polymorphonuclear leukocytes isolated from heparinized blood
Experimental: Heparinized blood (see Ethics statement) was collected, centrifuged at 200g for 10 minutes to collect plasma, and erythrocytes were sedimented in dextran. PMNL were obtained after centrifugation on a lymphocyte separation medium cushion (density, 1.077 g/mL) (Wisent) at 900 g for 20 minutes, followed by hypotonic lysis to remove residual erythrocytes.33 PMNL were counted and resuspended at 10^7 cells/mL in HBSS supplemented with 1.6 mmol/L CaCl2 and 0.3 U/mL adenosine deaminase (Sigma‐Aldrich). PMNL were preincubated with the test compounds or their diluent (0.1% DMSO) for 5 minutes at 37°C and were then stimulated with 1 µmol/L thapsigargin (Sigma‐Aldrich) for 15 minutes at 37°C.27 Reactions were stopped by adding two volumes of CH3OH:CH3CN (1:1) containing the internal standard PGB2 (100 ng/mL), and samples were processed for RP‐HPLC analysis of 5‐LO products.
(A) The structures of CAPE (2) and its analogues investigated in this study. (B) Isolated human PMNL were incubated in presence of test compounds (1 μmol/L) or their diluent (Control, 0.1% DMSO) for 5 minutes. PMNL were stimulated with 1 μmol/L of thapsigargin for 15 minutes at 37°C. The stimulation was then stopped, and samples were processed for analysis of 5‐LO products using RP‐HPLC. Total 5‐LO products measured represent LTB4, its trans isomers, 20‐OH‐LTB4, 20‐COOH‐LTB4 and 5‐hydroxyeicosatetraenoic acid. Data are expressed as means ± SEM of at least three independent experiments. *Difference from control, as determined using one‐way ANOVA with Dunnett's multiple comparison test (P < .05)

Inhibition of LT biosynthesis in human PMNL	Compound
near complete inhibition	O=C(/C=C/c1ccc(O)c(O)c1)CCCc1ccccc1 [compound 7]
near complete inhibition	O=C(/C=C/c1cc(O)ccc1O)OCCc1ccccc1 [compound 5]
near complete inhibition	COc1cc(/C=C/C(=O)CCc2ccccc2)cc(OC)c1O [compound 10, sinapic acid phenethyl ketone]

Same assay, conditions: 5‐LO product biosynthesis in human PMNL; mean (95% confidence interval)

Compound	IC50
O=C(/C=C/c1ccc(O)c(O)c1)OCCc1ccccc1 [CAPE (2), caffeic acid phenethyl ester, reference compound]	970 nM
O=C(/C=C/c1ccc(O)c(O)c1)CCCc1ccccc1 [compound 7]	520 nM
O=C(/C=C/c1cc(O)ccc1O)CCc1ccccc1 [compound 8]	510 nM

Compounds with a lower IC50, results first:

IC50	Compound
410 nM	COc1cc(/C=C/C(=O)CCc2ccccc2)cc(OC)c1O [compound 10, sinapic acid phenethyl ketone]
320 nM	O=C(/C=C/c1cc(O)ccc1O)OCCc1ccccc1 [compound 5]

Each compound was assayed on HepaRG cells (assay: Metabolite identification by LC‐MS/MS in HepaRG cell culture). Details: 50 µmol/L, 7.5 and 60 minutes.
Format: in vitro ADME, human
Experimental: Differentiated HepaRG cells, plated in 24 well plates, were washed with hepatocyte suspension medium (Williams E‐medium without phenol red, supplemented with 2 mmol/L Glutamax and […] HEPES) before addition of hepatocyte suspension medium (250 µL/well) containing (30 or 50 µmol/L) of the test compounds or their diluent. Cells were then incubated for 7.5, 15, 30, 60 or 90 minutes at 37°C after which the medium was removed.
In other experiments, LC‐MS/MS analysis was performed to identify metabolites of test compounds that had been incubated with HepaRG cells. First, fifty micromolar standards of the test compounds were diluted 3000‐fold and analyzed using electrospray ionization mass spectrometry on a linear quadrupole ion trap (LTQ‐XL) from Thermo‐Fisher Scientific (San Jose). Full scan spectra were collected using both ionization polarities for confirmation of the intact molecular weight of each compounds based on the expected [M + H]^+ and [M−H]^− pseudo‐molecular ions observed using mass spectrometry. The diluted standards were then subjected to reversed‐phase partition chromatography on an Altima C18 column produced by HiChrom and distributed by VWR (Mississsauga, ON). The LC system was a Dionex Ultimate 3000. The mass spectrometer electrospray source was used at 40 µL/min with a nitrogen sheath gas of 15, a spray voltage of ±4 kV, a capillary voltage of ±35 V, a tube lens of ±175 V and a capillary temperature of 160°C. Samples that had been collected from HepaRG cultures were purified on C18 cartridges and eluted with CH3OH. For the first injection of extracted samples, the MS method consisted of a repeated loop of full scan (m/z 100‐800), product ion scan based on the intact mass determined from infusion of the standards and one product ion scan. […]
Figure 7 Metabolite identification using negative ion LC‐MS/MS in HepaRG cell culture. […] Right panels show the MS and MS/MS of the generated metabolites detected at 60 minutes. […]

Metabolites formed in HepaRG cell culture	Compound
α,β‐unsaturated ketone reduction	O=C(/C=C/c1ccc(O)c(O)c1)CCCc1ccccc1 [compound 7]
α,β‐unsaturated ketone reduction	COc1cc(/C=C/C(=O)CCc2ccccc2)cc(OC)c1O [compound 10, sinapic acid phenethyl ketone]
α,β‐unsaturated ketone reduction	O=C(/C=C/c1cc(O)ccc1O)CCc1ccccc1 [compound 8]
